The results in this text go back to patent publication US9072734B2, “Quaternary ammonium salt compounds” (Teijin Pharma Limited, priority 2009, dated 2015).

Counter-ions that a name gives are not always drawn.

The target in this assay is T1, human β2 adrenergic receptor (Homo sapiens, UniProt P07550).
T1 construct: expressed in transfected cells; host or cells: CHO-K1
Nature of the assay: Whole-cell cAMP Flashplate assay using CHO-K1 cells stably expressing human β2 adrenergic receptor. Particulars: cAMP production. It counts as cell-based. Here is the method: The β2 adrenergic receptor, which couples to Gs proteins, activates adenylate cyclase upon agonist binding to the receptor. As a result, cAMP is produced in cells. The activation ability of the β2 adrenergic receptor can be measured by measuring the amount of the cAMP with cAMP-Screen System (Applied Biosystems).
CHO-K1 cells expressing the human β2 adrenergic receptor suspended in Ham's F-12 media containing 10% FBS were seeded into 96-well plates at a volume of 100 μL/well. Next day, they were washed with 200 μL PBS(−), to which 80 μL of 0.5 mM IBMX solution (Ham's F-12 media containing 0.05% BSA) was then added, followed by incubation for 20 minutes at 37° C. in the presence of 5% carbon dioxide. 20 μL of 9 concentrations of test compound solutions (0.5 mM IBMX solution containing 1% DMSO) prepared at concentrations in a range of 0.01-1000 nM with 2-fold serial dilution) were added, followed by incubation for 20 minutes at 37° C. in the presence of 5% carbon dioxide. Then, 100 μL of Assay/Lysis Buffer (a reagent that comes with cAMP Screen System) was added. The cells were lysed by pipetting, further incubated for 30 minutes at 37° C., and then frozen at −80° C. After several days, samples, thawed at room temperature, were treated according to the protocol of cAMP Screen System, and then chemiluminescence was measured by EnVision (PerkinElmer, Inc.). The amount of cAMP was calculated from the standard curve for the standard attached to cAMP Screen System.
The concentrations of a test compound at which 50% of its maximal effect is reached (EC50 values) were analyzed by a four-parameter logistic model using XLfit4 (IDBS, Ltd.) for the amounts of cAMP production at different concentrations of the test compounds.
A general note: cAMP levels reflect the balance of adenylyl cyclase and phosphodiesterase activity.

T1 sequence (P07550 whole entry): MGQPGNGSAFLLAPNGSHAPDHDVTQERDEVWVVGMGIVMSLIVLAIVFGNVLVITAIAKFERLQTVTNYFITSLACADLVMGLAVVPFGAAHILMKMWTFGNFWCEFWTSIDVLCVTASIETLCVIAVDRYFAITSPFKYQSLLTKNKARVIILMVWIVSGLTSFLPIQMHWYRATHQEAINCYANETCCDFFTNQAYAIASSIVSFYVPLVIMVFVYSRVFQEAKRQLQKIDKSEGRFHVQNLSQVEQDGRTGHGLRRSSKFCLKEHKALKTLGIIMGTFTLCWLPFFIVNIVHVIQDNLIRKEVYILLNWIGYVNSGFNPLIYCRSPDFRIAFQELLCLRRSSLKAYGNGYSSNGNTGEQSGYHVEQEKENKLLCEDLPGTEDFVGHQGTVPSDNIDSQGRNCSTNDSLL

Usually EC50 stands for the midpoint of the concentration-response curve. Compound `C[N+]1(C)[C@@H]2CC(OC(=O)Nc3cc(CCCC(=O)Nc4ccc5cc(CNC[C@H](O)c6ccc(O)c7[nH]c(=O)ccc67)ccc5c4)ccc3-c3ccccc3)C[C@H]1[C@@H]1O[C@@H]12` (stereo partly drawn) [Example 35, (1R,2R,4S,5S,7S)-7-({[5-(3-{[6-({[(2R)-2-hydroxy-2-(8-hydroxy-2-oxo-1,2-dihydroquinolin-5-yl)ethyl]amino}methyl)naphthalen-2-yl]carbamoyl}propyl)-2-phenylphenyl]carbamoyl}oxy)-9,9-dimethyl-3-oxa-9-azatricyclo[3.3.1.0^2,4]nonan-9-ium trifluoroacetate] had an EC50 of 2.7 nM.

Regarding `C[N+]1(C)[C@@H]2CC(OC(=O)Nc3cc(CCC(=O)Nc4ccc5cc(CNC[C@H](O)c6ccc(O)c7[nH]c(=O)ccc67)ccc5c4)ccc3-c3ccccc3)C[C@H]1[C@@H]1O[C@@H]12` (stereo partly drawn) [Example 40, (1R,2R,4S,5S,7S)-7-({[5-(2-{[6-({[(2R)-2-hydroxy-2-(8-hydroxy-2-oxo-1,2-dihydroquinolin-5-yl)ethyl]amino}methyl)naphthalen-2-yl]carbamoyl}ethyl)-2-phenylphenyl]carbamoyl}oxy)-9,9-dimethyl-3-oxa-9-azatricyclo[3.3.1.0^2,4]nonan-9-ium trifluoroacetate], the half-maximal effective concentration (EC50) was 3.4 nM. As for `C[N+]1(CCOc2ccccc2)CCC(OC(=O)Nc2cc(CCC(=O)Nc3ccc(CNC[C@H](O)c4ccc(O)c5[nH]c(=O)ccc45)cc3)ccc2-c2ccccc2)CC1` (stereo partly drawn) [Example 57, 4-({[5-(2-{[4-({[(2R)-2-hydroxy-2-(8-hydroxy-2-oxo-1,2-dihydroquinolin-5-yl)ethyl]amino}methyl)phenyl]carbamoyl}ethyl)-2-phenylphenyl]carbamoyl}oxy)-1-methyl-1-(2-phenoxyethyl)piperidin-1-ium trifluoro acetate], the figure is 2.7 nM; as for `C[N+]1(C)CCC(OC(=O)Nc2cc(OCCCCCCNC[C@H](O)c3ccc(O)c4[nH]c(=O)ccc34)ccc2-c2ccccc2)CC1` [Example 59, 4-[({5-[(6-{[(2R)-2-hydroxy-2-(8-hydroxy-2-oxo-1,2-dihydroquinolin-5-yl)ethyl]amino}hexyl)oxy]-2-phenylphenyl}carbamoyl)oxy]-1,1-dimethylpiperidin-1-ium trifluoroacetate], 0.2 nM; as for `C[N+]1(C)CCC(OC(=O)Nc2cc(OCCCCCCCCCNC[C@H](O)c3ccc(O)c4[nH]c(=O)ccc34)ccc2-c2ccccc2)CC1` [Example 60, 4-[({5-[(9-{[(2R)-2-hydroxy-2-(8-hydroxy-2-oxo-1,2-dihydroquinolin-5-yl)ethyl]amino}nonyl)oxy]-2-phenylphenyl}carbamoyl)oxy]-1,1-dimethylpiperidin-1-ium trifluoroacetate], 1.2 nM. Compound `C[N+]1(C)CCC(OC(=O)Nc2cc(OCC(=O)Nc3ccc(CNC[C@H](O)c4ccc(O)c5[nH]c(=O)ccc45)cc3)ccc2-c2ccccc2)CC1` [Example 64, 4-({[5-(2-{[4-({[(2R)-2-hydroxy-2-(8-hydroxy-2-oxo-1,2-dihydroquinolin-5-yl)ethyl]amino}methyl)phenyl]carbamoyl}methoxy)-2-phenylphenyl]carbamoyl}oxy)-1,1-dimethylpiperidin-1-ium trifluoroacetate] registered an EC50 of 38 nM. The compound `C[N+]1(C)CCC(OC(=O)Nc2cc(CCC(=O)NCc3ccc(CNC[C@H](O)c4ccc(O)c5[nH]c(=O)ccc45)cc3)ccc2-c2ccccc2)CC1` [Example 65, 4-[({5-[2-({[4-({[(2R)-2-hydroxy-2-(8-hydroxy-2-oxo-1,2-dihydroquinolin-5-yl)ethyl]amino}methyl)phenyl]methyl}carbamoyl)ethyl]-2-phenylphenyl}carbamoyl)oxy]-1,1-dimethylpiperidin-1-ium trifluoroacetate] showed an EC50 of 14.5 nM.
